Measurements reported in patent US20220000786A1, “PHARMACEUTICAL PREPARATION” (KOWA COMPANY, LTD., priority 2018, published 2022).

Test: Examination on stability: storage at 40° C. and 75% RH for 1 month, state of sample and composition changes
Type: physicochemical
Protocol: Samples 1-1 to 1-4 as shown below were prepared and stored at 40° C. and […] relative humidity (RH) for 1 month.
Pemafibrate as it was placed in a glass vessel with a lid opened, and labeled as Sample 1-1.
Aminoalkyl methacrylate copolymer E (EUDRAGIT EPO: Evonick Rohm GmbH) as it was placed in a glass vessel with a lid opened, and labeled as Sample 1-2.
Aminoalkyl methacrylate copolymer E (EUDRAGIT EPO: Evonick Rohm GmbH) was mixed with pemafibrate in a ratio of 1 part by mass to 1 part by mass of pemafibrate to obtain a mixture. The mixture was placed in a glass vessel with a lid opened, and labeled as Sample 1-3.
Aminoalkyl methacrylate copolymer E (EUDRAGIT EPO: Evonick Röhm GmbH) was mixed with pemafibrate in a ratio of 1 part by mass to 1 part by mass of pemafibrate to obtain a mixture. The mixture was taken in an amount of 0.25 g into a glass bottle (a bottle No. 2K, manufactured by ISOYA GLASS INDUSTRY) and closed with a lid, and labeled as Sample 1-4.

Change of state / presence or absence of composition changes after storage (1 month, start of storage compared with 1 month): maintained the same state | State of mixture, 1 month later (after storage for 1 month, glass vessel with lid opened (1-1 to 1-3) or closed glass bottle (1-4)): White powder | State of mixture, immediately after the start of storage (start of storage, glass vessel with lid opened (1-1 to 1-3) or closed glass bottle (1-4)): White powder
Structure (SMILES): CC[C@@H](Oc1cccc(CN(CCCOc2ccc(OC)cc2)c2nc3ccccc3o2)c1)C(=O)O [Sample 1-1, (2R)-2-[3-([1,3-Benzoxazol-2-yl[3-(4-methoxyphenoxy)propyl]amino]methyl)phenoxy]butanoic acid]
